± gives the uncertainty stated by the source.
Experiment: xn = mol fraction of the nth substance listed

O=[N+]([O-])c1ccccc1 + O=C1CCCCC1
Settings	viscosity [mPa·s]
298.15 K, 101.3 kPa, x2 = 0.1946	1.785 ± 0.027

O=[N+]([O-])c1ccccc1 + CCCCCC
Settings	viscosity [mPa·s]
293.17 K, 101.32 kPa, x1 = 0.183	0.408 ± 0.039
293.27 K, 101.32 kPa, x1 = 0.453	0.761 ± 0.042
293.65 K, 101.32 kPa, x1 = 0.419	0.697 ± 0.041
293.66 K, 101.32 kPa, x1 = 0.732	1.09 ± 0.045
293.77 K, 101.32 kPa, x1 = 0.287	0.552 ± 0.04
293.77 K, 101.32 kPa, x1 = 0.36	0.552 ± 0.04
294.1 K, 101.32 kPa, x1 = 0.559	0.799 ± 0.042
294.57 K, 101.32 kPa, x1 = 0.183	0.4 ± 0.039
294.75 K, 101.32 kPa, x1 = 0.419	0.651 ± 0.041
294.75 K, 101.32 kPa, x1 = 0.629	0.881 ± 0.043
294.85 K, 101.32 kPa, x1 = 0.453	0.692 ± 0.041
295.17 K, 101.32 kPa, x1 = 0.287	0.54 ± 0.04
295.17 K, 101.32 kPa, x1 = 0.36	0.54 ± 0.04
295.88 K, 101.32 kPa, x1 = 0.732	1.05 ± 0.044
296.05 K, 101.32 kPa, x1 = 0.559	0.775 ± 0.042
296.3 K, 101.32 kPa, x1 = 0.183	0.395 ± 0.039
296.4 K, 101.32 kPa, x1 = 0.453	0.665 ± 0.041
296.45 K, 101.32 kPa, x1 = 0.629	0.861 ± 0.043
296.57 K, 101.32 kPa, x1 = 0.287	0.529 ± 0.04
296.57 K, 101.32 kPa, x1 = 0.36	0.529 ± 0.04
296.85 K, 101.32 kPa, x1 = 0.419	0.621 ± 0.041
297.45 K, 101.32 kPa, x1 = 0.732	1.03 ± 0.044
298.07 K, 101.32 kPa, x1 = 0.559	0.747 ± 0.042
298.15 K, 101.32 kPa, x1 = 0.36	0.516 ± 0.04
298.25 K, 101.32 kPa, x1 = 0.287	0.516 ± 0.04
298.25 K, 101.32 kPa, x1 = 0.629	0.836 ± 0.043
298.35 K, 101.32 kPa, x1 = 0.419	0.605 ± 0.04
298.55 K, 101.32 kPa, x1 = 0.453	0.645 ± 0.041
303.15 K, 101 kPa, x2 = 0.072	1.319 ± 0.035
303.15 K, 101 kPa, x2 = 0.148	1.016 ± 0.027
303.15 K, 101 kPa, x2 = 0.246	0.8236 ± 0.022
303.15 K, 101 kPa, x2 = 0.318	0.6679 ± 0.018
303.15 K, 101 kPa, x2 = 0.391	0.5916 ± 0.016
303.15 K, 101 kPa, x2 = 0.51	0.4845 ± 0.013
303.15 K, 101 kPa, x2 = 0.618	0.4107 ± 0.011
303.15 K, 101 kPa, x2 = 0.735	0.3659 ± 0.0098
303.15 K, 101 kPa, x2 = 0.862	0.3216 ± 0.0087

ClC(Cl)=C(Cl)Cl + CCC(C)O
viscosity [mPa·s]
Settings	x1 = 0.1024	x1 = 0.213	x1 = 0.3172	x1 = 0.4016	x1 = 0.5142	x1 = 0.6125	x1 = 0.7018	x1 = 0.7817	x1 = 0.8032	x1 = 0.9108
298.15 K, 101.3 kPa	–	–	–	–	–	–	–	1.005 ± 0.01	–	–
303.15 K, 101.33 kPa	1.918 ± 0.012	1.508 ± 0.01	1.263 ± 0.008	1.127 ± 0.008	1.005 ± 0.007	0.93 ± 0.006	0.884 ± 0.006	–	0.852 ± 0.006	0.822 ± 0.006

CCCCCCCC + CCCCCCC
Settings	viscosity [mPa·s]
293.15 K, 101 kPa, x2 = 0.2	0.511 ± 0.014
293.15 K, 101 kPa, x2 = 0.4	0.484 ± 0.013
293.15 K, 101 kPa, x2 = 0.6	0.458 ± 0.012
293.15 K, 101 kPa, x2 = 0.8	0.433 ± 0.012
293.15 K, 101.33 kPa, x2 = 0.07168	0.531 ± 0.004
293.15 K, 101.33 kPa, x2 = 0.1121	0.525 ± 0.004
293.15 K, 101.33 kPa, x2 = 0.1909	0.514 ± 0.004
293.15 K, 101.33 kPa, x2 = 0.2852	0.501 ± 0.004
293.15 K, 101.33 kPa, x2 = 0.3891	0.487 ± 0.004
293.15 K, 101.33 kPa, x2 = 0.4993	0.473 ± 0.004
293.15 K, 101.33 kPa, x2 = 0.5985	0.46 ± 0.003
293.15 K, 101.33 kPa, x2 = 0.6936	0.448 ± 0.003
293.15 K, 101.33 kPa, x2 = 0.7797	0.437 ± 0.003
293.15 K, 101.33 kPa, x2 = 0.8967	0.422 ± 0.003
293.15 K, 101.33 kPa, x2 = 0.9584	0.414 ± 0.003
298.15 K, 101.33 kPa, x2 = 0.1073	0.4942 ± 0.0071
298.15 K, 101.33 kPa, x2 = 0.2098	0.4774 ± 0.0069
298.15 K, 101.33 kPa, x2 = 0.406	0.4539 ± 0.0066
298.15 K, 101.33 kPa, x2 = 0.5089	0.4431 ± 0.0065
298.15 K, 101.33 kPa, x2 = 0.6081	0.4285 ± 0.0063
298.15 K, 101.33 kPa, x2 = 0.7052	0.4201 ± 0.0062
298.15 K, 101.33 kPa, x2 = 0.807	0.4103 ± 0.0061
298.15 K, 101.33 kPa, x2 = 0.9012	0.3958 ± 0.0059
303.15 K, 101.33 kPa, x2 = 0.1022	0.469 ± 0.004
303.15 K, 101.33 kPa, x2 = 0.199	0.458 ± 0.003
303.15 K, 101.33 kPa, x2 = 0.2324	0.454 ± 0.003
303.15 K, 101.33 kPa, x2 = 0.3088	0.445 ± 0.003
303.15 K, 101.33 kPa, x2 = 0.369	0.438 ± 0.003
303.15 K, 101.33 kPa, x2 = 0.5069	0.423 ± 0.003
303.15 K, 101.33 kPa, x2 = 0.5644	0.416 ± 0.003
303.15 K, 101.33 kPa, x2 = 0.6459	0.407 ± 0.003
303.15 K, 101.33 kPa, x2 = 0.7393	0.397 ± 0.003
303.15 K, 101.33 kPa, x2 = 0.799	0.391 ± 0.003
303.15 K, 101.33 kPa, x2 = 0.9128	0.379 ± 0.003
312.75 K, 100 kPa, x1 = 0.2	0.3426 ± 0.0044
313.15 K, 101 kPa, x2 = 0.2	0.407 ± 0.011
313.15 K, 101 kPa, x2 = 0.4	0.387 ± 0.01
313.15 K, 101 kPa, x2 = 0.6	0.368 ± 0.01
313.15 K, 101 kPa, x2 = 0.8	0.35 ± 0.009
313.15 K, 101.33 kPa, x2 = 0.05003	0.426 ± 0.003
313.15 K, 101.33 kPa, x2 = 0.09664	0.421 ± 0.003
313.15 K, 101.33 kPa, x2 = 0.1716	0.413 ± 0.003
313.15 K, 101.33 kPa, x2 = 0.212	0.409 ± 0.003
313.15 K, 101.33 kPa, x2 = 0.2687	0.404 ± 0.003
313.15 K, 101.33 kPa, x2 = 0.3937	0.392 ± 0.003
313.15 K, 101.33 kPa, x2 = 0.4963	0.382 ± 0.003
313.15 K, 101.33 kPa, x2 = 0.596	0.372 ± 0.003
313.15 K, 101.33 kPa, x2 = 0.6942	0.363 ± 0.003
313.15 K, 101.33 kPa, x2 = 0.7937	0.354 ± 0.003
313.15 K, 101.33 kPa, x2 = 0.9085	0.343 ± 0.003
313.15 K, 101.33 kPa, x2 = 0.9589	0.339 ± 0.003

Reference: the CheMixHub viscosity set
